From ChEMBL document CHEMBL1201862, “PubChem BioAssay data set” (2004)
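Where inhibition never reached the appropriate level, the endpoint shown equals the highest concentration tested. Otherwise, values were interpolated linearly from a five-concentration, 48-hour dose response in 96-well plates. GI50 is the concentration that inhibits growth by half.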 The source made the active and inactive calls. Rule as the data show it: active = GI50 up to about 1.1 µM and inactive = higher.

What was measured:
Test in all cases: NCI anticancer screen, dose series, 48 h
786-0 = tested on: 786-0
HCC 2998 = tested on: HCC 2998
HCT-15 = tested on: HCT-15
HT-29 = tested on: HT-29
Hs-578T = tested on: Hs-578T
IGROV-1 = tested on: IGROV-1
LOX IMVI = tested on: LOX IMVI
M14 = tested on: M14
MDA-MB-231 = tested on: MDA-MB-231
MDA-MB-435 = tested on: MDA-MB-435
NCI-H522 = tested on: NCI-H522
OVCAR-4 = tested on: OVCAR-4
OVCAR-8 = tested on: OVCAR-8
RXF 393 = tested on: RXF 393
SF-268 = tested on: SF-268
SK-MEL-2 = tested on: SK-MEL-2
SNB-19 = tested on: SNB-19
SW-620 = tested on: SW-620
U-251 = tested on: U-251
RPMI-8226 = tested on: RPMI-8226

Compound	GI50 (786-0)	GI50 (HCC 2998)	GI50 (HCT-15)	GI50 (HT-29)	GI50 (Hs-578T)	GI50 (IGROV-1)	GI50 (LOX IMVI)	GI50 (M14)	GI50 (MDA-MB-231)	GI50 (MDA-MB-435)	GI50 (NCI-H522)	GI50 (OVCAR-4)	GI50 (OVCAR-8)	GI50 (RXF 393)	GI50 (SF-268)	GI50 (SK-MEL-2)	GI50 (SNB-19)	GI50 (SW-620)	GI50 (U-251)	GI50 (RPMI-8226)
FC(F)(F)c1ccc2c(c1)nc(-c1ccc(Cl)cc1)n2CC1CCCN2CCCCC12 (stereo not given)	13.8 µM (inactive)	13.5 µM (inactive)	14.4 µM	4.98 µM (inactive)	14 µM (inactive)	14.4 µM (inactive)	14.3 µM (inactive)	14 µM (inactive)	7.33 µM (inactive)	16.9 µM (inactive)	13.2 µM (inactive)	15.8 µM (inactive)	15.6 µM (inactive)	13.9 µM (inactive)	14 µM (inactive)	15.9 µM (inactive)	17.1 µM (inactive)	18.5 µM (inactive)	14.2 µM (inactive)	–
Cc1ccc(/N=N\c2c(O)c(S(=O)(=O)O)cc3cc(S(=O)(=O)O)ccc23)c(C)c1	> 100 µM (inactive)	> 100 µM (inactive)	> 100 µM	> 100 µM (inactive)	> 100 µM (inactive)	> 100 µM (inactive)	> 100 µM (inactive)	> 100 µM (inactive)	> 100 µM (inactive)	> 100 µM (inactive)	> 100 µM (inactive)	> 100 µM (inactive)	> 100 µM (inactive)	> 100 µM (inactive)	> 100 µM (inactive)	> 100 µM (inactive)	> 100 µM (inactive)	> 100 µM (inactive)	> 100 µM (inactive)	> 100 µM (inactive)
CCCCOCCOC1=CC(=O)c2c(O)ccc(O)c2C1=O	1.67 µM (inactive)	1.88 µM (inactive)	–	1.67 µM (inactive)	2.22 µM (inactive)	1.91 µM (inactive)	1.73 µM (inactive)	1 µM (active)	1.95 µM (inactive)	0.185 µM (active)	1.58 µM (inactive)	1.92 µM (inactive)	–	1.66 µM (inactive)	1.76 µM (inactive)	1.69 µM (inactive)	1.75 µM (inactive)	1.45 µM (inactive)	1.7 µM (inactive)	2.91 µM (inactive)
COc1cccc(C2CC(=O)c3cccn32)c1 (stereo not given)	> 100 µM (inactive)	> 100 µM (inactive)	> 100 µM	> 100 µM (inactive)	23.4 µM (inactive)	> 100 µM (inactive)	> 100 µM (inactive)	> 100 µM (inactive)	82.6 µM (inactive)	> 100 µM (inactive)	> 100 µM (inactive)	> 100 µM (inactive)	> 100 µM (inactive)	> 100 µM (inactive)	69.3 µM (inactive)	> 100 µM (inactive)	> 100 µM (inactive)	> 100 µM (inactive)	> 100 µM (inactive)	> 100 µM (inactive)
CN(C)CCCN1c2ccc([N+](=O)[O-])cc2CCc2cc([N+](=O)[O-])ccc21	12.1 µM (inactive)	9.84 µM (inactive)	16.7 µM	14.8 µM (inactive)	15.2 µM (inactive)	14.9 µM (inactive)	16.9 µM (inactive)	16.7 µM (inactive)	15.9 µM (inactive)	13.4 µM (inactive)	16.9 µM (inactive)	–	15.5 µM (inactive)	6.98 µM (inactive)	15.4 µM (inactive)	20.7 µM (inactive)	17.8 µM (inactive)	15.3 µM (inactive)	16.2 µM (inactive)	20.4 µM (inactive)
COc1cc(C2CC(C)(N3CCCC3)Oc3cc4c(cc32)OCO4)cc(OC)c1OC (stereo not given)	0.383 µM (active)	0.618 µM (active)	0.12 µM	0.165 µM (active)	0.259 µM (active)	0.31 µM (active)	0.426 µM (active)	0.394 µM (active)	0.145 µM (active)	0.0211 µM (active)	0.2 µM (active)	19.5 µM (inactive)	0.524 µM (active)	0.0908 µM (active)	0.745 µM (active)	0.408 µM (active)	0.277 µM (active)	0.167 µM (active)	0.279 µM (active)	–
CC1(C)OC2C(CO)OC(n3cnc(N)nc3=O)C2O1 (stereo not given)	> 100 µM (inactive)	> 100 µM (inactive)	> 100 µM	–	> 100 µM (inactive)	> 100 µM (inactive)	> 100 µM (inactive)	> 100 µM (inactive)	> 100 µM (inactive)	> 100 µM (inactive)	> 100 µM (inactive)	–	> 100 µM (inactive)	> 100 µM (inactive)	> 100 µM (inactive)	> 100 µM (inactive)	> 100 µM (inactive)	> 100 µM (inactive)	> 100 µM (inactive)	> 100 µM (inactive)
COC(=O)/N=[N+](\[O-])C(c1ccc(Cl)cc1)c1ccc(Cl)cc1	27.1 µM (inactive)	32 µM (inactive)	30.8 µM	51.6 µM (inactive)	36.4 µM (inactive)	40.1 µM (inactive)	15.7 µM (inactive)	31.3 µM (inactive)	1.75 µM (inactive)	38.1 µM (inactive)	32.6 µM (inactive)	42.6 µM (inactive)	36.3 µM (inactive)	27.2 µM (inactive)	69.5 µM (inactive)	34.1 µM (inactive)	50.4 µM (inactive)	48.6 µM (inactive)	39.2 µM (inactive)	21.9 µM (inactive)
CC(C)c1nc(Cl)nc(Cl)c1Cl	0.104 µM (active)	0.948 µM (active)	0.279 µM	0.0479 µM (active)	0.302 µM (active)	0.172 µM (active)	< 0.0365 µM (active)	0.0843 µM (active)	1.24 µM (inactive)	0.241 µM (active)	0.303 µM (active)	0.249 µM (active)	0.436 µM (active)	0.365 µM (active)	1.16 µM (inactive)	0.239 µM (active)	0.847 µM (active)	< 0.0233 µM (active)	0.61 µM (active)	0.142 µM (active)
COC(=O)c1c(OC(C)=O)ccc2c1c1c(OC(C)=O)c3ccccc3c(OC(C)=O)c1n2Cc1ccccc1	12.1 µM (inactive)	1.85 µM (inactive)	4.78 µM	12.2 µM (inactive)	16.9 µM (inactive)	4.09 µM (inactive)	–	2.93 µM (inactive)	4.09 µM (inactive)	9.95 µM (inactive)	0.783 µM (active)	2.39 µM (inactive)	9.44 µM (inactive)	5.77 µM (inactive)	3.44 µM (inactive)	1.37 µM (inactive)	9.51 µM (inactive)	–	2.43 µM (inactive)	1.52 µM (inactive)
CSc1nc(=O)cnn1C	> 100 µM (inactive)	> 100 µM (inactive)	> 100 µM	> 100 µM (inactive)	> 100 µM (inactive)	> 100 µM (inactive)	–	> 100 µM (inactive)	> 100 µM (inactive)	> 100 µM (inactive)	> 100 µM (inactive)	> 100 µM (inactive)	> 100 µM (inactive)	> 100 µM (inactive)	> 100 µM (inactive)	> 100 µM (inactive)	> 100 µM (inactive)	> 100 µM (inactive)	> 100 µM (inactive)	> 100 µM (inactive)
CCOC(=O)c1c(N2CCCC2)[nH]c(=O)c(C(c2ccco2)c2c(O)c(C(=O)OCC)c(N3CCCC3)[nH]c2=O)c1O	29.2 µM (inactive)	> 100 µM (inactive)	> 100 µM	> 100 µM (inactive)	27.9 µM (inactive)	–	37.4 µM (inactive)	> 100 µM (inactive)	> 100 µM (inactive)	> 100 µM (inactive)	84.9 µM (inactive)	> 100 µM (inactive)	92.9 µM (inactive)	54.5 µM (inactive)	85.3 µM (inactive)	> 100 µM (inactive)	38.7 µM (inactive)	> 100 µM (inactive)	73.8 µM (inactive)	84.3 µM (inactive)
O=C(c1ccc(-c2ccccc2)cc1)N(Cc1cccnc1)C(=S)N(Cc1cccnc1)C(=O)c1ccc(-c2ccccc2)cc1	> 100 µM (inactive)	> 100 µM (inactive)	87.3 µM	48.5 µM (inactive)	> 100 µM (inactive)	–	> 100 µM (inactive)	81.3 µM (inactive)	> 100 µM (inactive)	54.6 µM (inactive)	> 100 µM (inactive)	32.7 µM (inactive)	> 100 µM (inactive)	–	> 100 µM (inactive)	> 100 µM (inactive)	> 100 µM (inactive)	> 100 µM (inactive)	> 100 µM (inactive)	3.56 µM (inactive)
Cc1cn(C2CC(N=[N+]=[N-])C(COP(=O)(O)OCC3OC(n4cc(F)c(=O)[nH]c4=O)CC3O)O2)c(=O)[nH]c1=O (stereo not given)	0.381 µM (active)	> 100 µM (inactive)	> 100 µM	> 100 µM (inactive)	> 100 µM (inactive)	2.88 µM (inactive)	0.653 µM (active)	10.9 µM (inactive)	> 100 µM (inactive)	16 µM (inactive)	> 100 µM (inactive)	–	5.94 µM (inactive)	> 100 µM (inactive)	0.442 µM (active)	> 100 µM (inactive)	> 31.6 µM (inactive)	4.56 µM (inactive)	> 25.5 µM (inactive)	0.311 µM (active)
COc1cccc(C2c3cc4c(cc3OC(Nc3ccccc3)C2C)OCO4)c1OC (stereo not given)	10.6 µM (inactive)	74.1 µM (inactive)	4.37 µM	11.2 µM (inactive)	3.08 µM (inactive)	14.9 µM (inactive)	3.77 µM (inactive)	67.6 µM (inactive)	13.7 µM (inactive)	14.8 µM (inactive)	3.36 µM (inactive)	–	16.3 µM (inactive)	3.66 µM (inactive)	8.73 µM (inactive)	4.55 µM (inactive)	> 100 µM (inactive)	7.85 µM (inactive)	5.94 µM (inactive)	1.64 µM (inactive)
